Structures are written as SMILES. ≈ marks a conversion by molar mass, not a printed value.

Test in all cases: MIC, serial dilution (Iso-Sensitest agar / microdilution in BH medium)
Common to all, as to assay type: cell-based

The subject of assay [1] is Klebs. 57 USA. The note with it: 37° C., about 20 hours. The procedure: (§1) The minimum inhibitory concentrations (MIC) were determined by serial dilution methods on Iso-Sensitest agar (Oxoid). For each test substance, a number of agar plates were prepared which contained a decreasing concentration of the active compound on double dilution in each case. The agar plates were inoculated with a multipoint inoculator (Denley). For inoculation, overnight cultures of the bacilli were used which were previously diluted such that each inoculation point contained about 10^4 colony-forming particles. The inoculated agar plates were incubated at 37° C., and the bacterial growth was read off after about 20 hours. The MIC value (μg/ml) indicates the lowest active compound concentration at which no growth could be detected using the naked eye. The MIC values were determined in BH medium with the aid of the microdilution method. Each test substance was dissolved in the nutrient medium. A concentration series of the test substances was prepared in the microtiter plates by serial dilution. For inoculation, overnight cultures of the bacilli were used which had previously been diluted 1:250 in the nutrient medium. 100 μl each of inoculation solution were added to 100 μl of the diluted, active compound-containing nutrient solutions. The microtiter plates were incubated at 37° C. and read off after about 20 hours. The MIC value (μg/ml) indicates the lowest active compound concentration at which no growth could be detected.

Assay [2] has as its system Staph 25701. The note with it: 37° C., about 20 hours. As to the method: as §1
For assay [3], the system named is E. coli Neumann. The conditions noted are these: Escherichia coli, 37° C., about 20 hours. As to the method: as §1
In assay [4] the test system is Staph. 133. The note with it: 37° C., about 20 hours. The procedure: as §1
The test system of assay [5] is Staph 9TV. The note with it: 37° C., about 20 hours. The procedure: as §1
Assay [6] deals with Staph. 48N. The conditions noted are these: 37° C., about 20 hours. The procedure:
as §1

The subject of assay [7] is Psdm. Bonn. The conditions noted are these: 37° C., about 20 hours. As to the method:
as §1

Take `CC(=O)NC[C@H]1CN(c2ccc3oc(C)cc3c2)C(=O)O1` [Example 16]: the MIC (in general, the lowest concentration found to suppress growth) was more than 64 mg/L in assay [1]; 1 mg/L (≈ 3.47 µM) in assay [2]; more than 64 mg/L in assay [3]; 1 mg/L (≈ 3.47 µM) in assay [4]; 0.5 mg/L (≈ 1.73 µM) in assay [5]; 1 mg/L (≈ 3.47 µM) in assay [6]. For the same molecule, the MIC in assay [7] is more than 64 mg/L.
For the molecule `CC(=O)NC[C@H]1CN(c2ccc3sccc3c2)C(=O)O1` [Example 9, (5S)-3-[5-Benzo[b]thiophenyl]5-acetylamino-methyl-oxazolidin-2-one], the minimal inhibitory concentration (MIC) in assay [1] was more than 64 mg/L; in assay [2], 2 mg/L (≈ 6.89 µM); in assay [3], more than 64 mg/L; in assay [4], 4 mg/L (≈ 13.8 µM); in assay [5], 2 mg/L (≈ 6.89 µM); in assay [6] it was 4 mg/L (≈ 13.8 µM). The molecule further came in with an MIC in assay [7] of more than 64 mg/L.
`CC(=O)NC[C@H]1CN(c2ccc3c(c2)C=CS3(=O)=O)C(=O)O1` [Example 27]: the MIC in assay [1] was more than 64 mg/L; in assay [2] it was 16 mg/L (≈ 49.6 µM); in assay [3], more than 64 mg/L; in assay [4], 16 mg/L (≈ 49.6 µM); in assay [5] it was 8 mg/L (≈ 24.8 µM); in assay [6], 16 mg/L (≈ 49.6 µM). In addition, the MIC in assay [7] is more than 64 mg/L.

These data come from patent US5684023A, “Benzofuranyl -and benzothienyloxazolidinones” (Bayer Aktiengesellschaft, priority 1994, dated 1997).
